Results taken from doi:10.1101/471615v1 (biorxiv, 2018).

How the values were obtained:
Experiment in all cases: biochemical
[1] = target: receptor-interacting protein kinase 2, RIPK2 (Homo sapiens, UniProt O43353)
EphB6 = target: T1, EphB6 (Homo sapiens, UniProt O15197)
T1 sequence (O15197 1-1021): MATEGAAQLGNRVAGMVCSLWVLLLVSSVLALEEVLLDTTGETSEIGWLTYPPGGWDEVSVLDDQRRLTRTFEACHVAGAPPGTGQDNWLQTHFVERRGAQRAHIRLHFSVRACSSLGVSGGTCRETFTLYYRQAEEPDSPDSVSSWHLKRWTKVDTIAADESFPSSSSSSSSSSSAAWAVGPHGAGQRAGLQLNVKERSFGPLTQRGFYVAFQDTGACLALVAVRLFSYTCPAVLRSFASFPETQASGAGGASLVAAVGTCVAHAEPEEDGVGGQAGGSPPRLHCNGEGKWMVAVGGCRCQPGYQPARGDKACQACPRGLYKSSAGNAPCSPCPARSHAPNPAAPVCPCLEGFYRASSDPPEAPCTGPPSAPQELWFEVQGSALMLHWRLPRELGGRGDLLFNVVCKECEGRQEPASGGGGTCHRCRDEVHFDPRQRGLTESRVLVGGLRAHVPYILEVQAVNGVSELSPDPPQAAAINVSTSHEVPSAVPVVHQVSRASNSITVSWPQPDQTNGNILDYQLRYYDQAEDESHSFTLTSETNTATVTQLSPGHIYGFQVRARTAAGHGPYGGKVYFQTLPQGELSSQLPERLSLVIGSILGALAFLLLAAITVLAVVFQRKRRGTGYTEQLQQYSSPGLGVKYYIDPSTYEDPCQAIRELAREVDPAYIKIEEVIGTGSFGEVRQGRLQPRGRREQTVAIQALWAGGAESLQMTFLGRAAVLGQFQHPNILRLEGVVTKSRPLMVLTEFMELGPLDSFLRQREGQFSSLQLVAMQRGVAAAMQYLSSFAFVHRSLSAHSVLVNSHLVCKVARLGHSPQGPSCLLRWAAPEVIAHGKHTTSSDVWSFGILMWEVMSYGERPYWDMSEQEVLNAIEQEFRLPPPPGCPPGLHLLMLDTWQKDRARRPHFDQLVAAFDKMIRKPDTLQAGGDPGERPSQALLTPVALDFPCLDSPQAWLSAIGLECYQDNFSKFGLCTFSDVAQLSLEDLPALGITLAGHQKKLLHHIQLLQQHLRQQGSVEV

nemo-like kinase, NLK = target: T2, nemo-like kinase, NLK (Homo sapiens, UniProt Q9UBE8)
T2 sequence (Q9UBE8 1-527): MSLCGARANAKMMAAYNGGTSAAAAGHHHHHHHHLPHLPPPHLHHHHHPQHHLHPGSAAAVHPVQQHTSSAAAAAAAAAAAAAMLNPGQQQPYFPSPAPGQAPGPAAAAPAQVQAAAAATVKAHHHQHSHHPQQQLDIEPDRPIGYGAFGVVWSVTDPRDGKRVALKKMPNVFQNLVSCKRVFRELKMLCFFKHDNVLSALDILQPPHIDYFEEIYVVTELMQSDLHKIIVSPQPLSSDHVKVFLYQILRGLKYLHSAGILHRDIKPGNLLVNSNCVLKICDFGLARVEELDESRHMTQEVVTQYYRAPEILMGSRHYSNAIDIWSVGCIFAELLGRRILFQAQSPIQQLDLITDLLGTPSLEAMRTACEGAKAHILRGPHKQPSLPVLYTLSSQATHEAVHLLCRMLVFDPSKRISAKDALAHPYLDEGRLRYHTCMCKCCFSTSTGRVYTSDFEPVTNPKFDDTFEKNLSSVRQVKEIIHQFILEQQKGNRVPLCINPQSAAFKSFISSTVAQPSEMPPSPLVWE

EphA8 = target: T3, EphA8 (Homo sapiens, UniProt P29322)
T3 sequence (P29322 1-1005): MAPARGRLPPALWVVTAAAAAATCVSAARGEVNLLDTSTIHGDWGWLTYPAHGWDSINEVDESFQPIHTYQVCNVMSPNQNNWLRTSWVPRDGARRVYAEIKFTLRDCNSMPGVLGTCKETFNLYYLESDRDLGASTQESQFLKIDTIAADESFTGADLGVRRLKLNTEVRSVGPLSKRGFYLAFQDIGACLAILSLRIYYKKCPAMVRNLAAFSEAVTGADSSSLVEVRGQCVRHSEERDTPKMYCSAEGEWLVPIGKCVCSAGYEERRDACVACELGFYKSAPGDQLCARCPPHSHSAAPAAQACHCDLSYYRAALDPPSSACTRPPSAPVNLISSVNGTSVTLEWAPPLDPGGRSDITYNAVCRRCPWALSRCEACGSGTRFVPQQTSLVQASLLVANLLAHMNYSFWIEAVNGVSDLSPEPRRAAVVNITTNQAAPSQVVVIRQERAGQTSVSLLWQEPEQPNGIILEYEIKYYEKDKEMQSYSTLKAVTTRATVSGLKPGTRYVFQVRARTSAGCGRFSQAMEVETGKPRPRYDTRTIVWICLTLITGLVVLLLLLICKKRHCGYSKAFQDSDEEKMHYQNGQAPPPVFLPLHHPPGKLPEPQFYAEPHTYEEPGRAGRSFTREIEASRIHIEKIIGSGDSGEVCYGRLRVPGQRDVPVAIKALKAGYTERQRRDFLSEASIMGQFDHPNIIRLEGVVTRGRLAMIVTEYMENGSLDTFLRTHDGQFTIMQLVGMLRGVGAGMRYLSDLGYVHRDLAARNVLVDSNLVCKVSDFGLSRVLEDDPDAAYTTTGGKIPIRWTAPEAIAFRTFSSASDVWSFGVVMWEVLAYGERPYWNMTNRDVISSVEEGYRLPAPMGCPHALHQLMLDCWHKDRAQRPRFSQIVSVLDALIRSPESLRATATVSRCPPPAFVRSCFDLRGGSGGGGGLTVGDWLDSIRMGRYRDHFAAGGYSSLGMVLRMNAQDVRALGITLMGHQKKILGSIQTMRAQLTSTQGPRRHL

ABL1-non-Phos. = ABL1-non-Phos. (Homo sapiens, UniProt P00519)
Sequence of ABL1-non-Phos. (P00519 whole entry): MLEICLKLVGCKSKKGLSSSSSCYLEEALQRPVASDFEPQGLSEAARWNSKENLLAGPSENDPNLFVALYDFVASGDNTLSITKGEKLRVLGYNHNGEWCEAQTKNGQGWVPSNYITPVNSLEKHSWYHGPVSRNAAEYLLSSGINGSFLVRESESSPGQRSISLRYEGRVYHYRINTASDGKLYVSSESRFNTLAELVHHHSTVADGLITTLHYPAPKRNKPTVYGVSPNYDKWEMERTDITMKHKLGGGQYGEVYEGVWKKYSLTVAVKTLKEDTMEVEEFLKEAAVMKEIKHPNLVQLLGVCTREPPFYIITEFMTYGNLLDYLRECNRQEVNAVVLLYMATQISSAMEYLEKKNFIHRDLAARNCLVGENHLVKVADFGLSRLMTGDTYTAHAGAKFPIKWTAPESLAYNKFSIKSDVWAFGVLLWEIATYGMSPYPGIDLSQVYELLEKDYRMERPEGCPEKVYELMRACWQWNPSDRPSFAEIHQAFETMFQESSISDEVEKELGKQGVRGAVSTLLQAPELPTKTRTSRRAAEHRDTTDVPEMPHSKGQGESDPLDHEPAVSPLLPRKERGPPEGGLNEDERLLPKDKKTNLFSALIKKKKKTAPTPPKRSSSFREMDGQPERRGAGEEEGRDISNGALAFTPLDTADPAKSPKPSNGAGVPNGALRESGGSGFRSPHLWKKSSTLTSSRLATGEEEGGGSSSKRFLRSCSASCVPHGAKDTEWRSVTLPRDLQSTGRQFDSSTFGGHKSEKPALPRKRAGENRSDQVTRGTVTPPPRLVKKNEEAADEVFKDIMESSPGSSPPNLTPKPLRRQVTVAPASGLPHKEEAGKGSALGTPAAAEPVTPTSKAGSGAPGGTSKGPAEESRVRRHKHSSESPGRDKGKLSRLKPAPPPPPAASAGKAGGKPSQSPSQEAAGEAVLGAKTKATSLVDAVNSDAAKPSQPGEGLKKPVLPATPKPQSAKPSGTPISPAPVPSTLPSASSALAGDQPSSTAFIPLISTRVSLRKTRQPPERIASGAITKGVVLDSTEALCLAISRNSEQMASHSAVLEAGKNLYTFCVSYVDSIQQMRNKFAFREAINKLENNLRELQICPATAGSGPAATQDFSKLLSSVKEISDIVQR

LCK = LCK (Homo sapiens, UniProt P06239)
Sequence of LCK (P06239 whole entry): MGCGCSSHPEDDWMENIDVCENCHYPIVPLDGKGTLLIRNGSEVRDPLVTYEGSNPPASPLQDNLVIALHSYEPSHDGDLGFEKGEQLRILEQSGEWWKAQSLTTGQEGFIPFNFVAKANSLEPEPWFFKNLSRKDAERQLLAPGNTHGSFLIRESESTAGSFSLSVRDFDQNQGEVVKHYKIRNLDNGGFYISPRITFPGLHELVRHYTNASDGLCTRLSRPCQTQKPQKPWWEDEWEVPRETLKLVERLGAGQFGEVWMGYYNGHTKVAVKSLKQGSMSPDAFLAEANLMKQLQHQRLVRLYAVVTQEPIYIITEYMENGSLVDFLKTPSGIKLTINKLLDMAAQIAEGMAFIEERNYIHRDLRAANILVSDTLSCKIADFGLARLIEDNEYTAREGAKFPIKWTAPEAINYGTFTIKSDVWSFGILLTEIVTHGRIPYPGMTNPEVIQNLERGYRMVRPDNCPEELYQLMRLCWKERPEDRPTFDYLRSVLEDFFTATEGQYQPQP

BMPR1B = BMPR1B (Homo sapiens, UniProt O00238)
Sequence of BMPR1B (O00238 whole entry): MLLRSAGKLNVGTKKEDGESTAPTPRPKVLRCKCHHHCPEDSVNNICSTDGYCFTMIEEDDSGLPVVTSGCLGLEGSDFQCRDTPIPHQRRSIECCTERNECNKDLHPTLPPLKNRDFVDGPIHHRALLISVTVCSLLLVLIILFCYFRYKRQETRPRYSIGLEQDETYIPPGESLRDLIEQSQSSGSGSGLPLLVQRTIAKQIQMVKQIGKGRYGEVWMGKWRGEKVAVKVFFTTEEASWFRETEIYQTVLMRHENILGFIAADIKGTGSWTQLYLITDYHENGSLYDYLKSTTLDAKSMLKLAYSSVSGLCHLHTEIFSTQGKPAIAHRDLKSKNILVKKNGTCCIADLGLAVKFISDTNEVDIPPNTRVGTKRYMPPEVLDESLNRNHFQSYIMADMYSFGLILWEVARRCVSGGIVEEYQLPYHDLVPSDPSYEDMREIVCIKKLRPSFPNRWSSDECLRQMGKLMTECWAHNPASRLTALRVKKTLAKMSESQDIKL

Measured: Kd

Sequence of receptor-interacting protein kinase 2, RIPK2 (O43353 whole entry): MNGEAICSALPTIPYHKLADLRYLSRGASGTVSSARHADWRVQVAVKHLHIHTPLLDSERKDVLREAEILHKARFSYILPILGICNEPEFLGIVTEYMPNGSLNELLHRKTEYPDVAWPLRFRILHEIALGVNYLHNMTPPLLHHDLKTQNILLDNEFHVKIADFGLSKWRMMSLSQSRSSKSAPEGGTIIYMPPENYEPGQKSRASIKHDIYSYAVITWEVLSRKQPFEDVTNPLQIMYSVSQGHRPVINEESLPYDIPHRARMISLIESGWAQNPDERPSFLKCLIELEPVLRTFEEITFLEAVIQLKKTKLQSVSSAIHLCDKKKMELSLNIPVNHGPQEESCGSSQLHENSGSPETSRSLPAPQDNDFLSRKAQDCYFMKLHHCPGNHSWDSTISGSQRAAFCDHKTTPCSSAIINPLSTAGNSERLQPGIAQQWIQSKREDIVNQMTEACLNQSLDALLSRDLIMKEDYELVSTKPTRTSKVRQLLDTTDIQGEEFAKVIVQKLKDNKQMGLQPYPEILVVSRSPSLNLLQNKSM

COc1cc(N(C)c2ccnc3ccc(C(F)(F)F)cc23)cc(OC)c1OC [compound 21, negative control (21)]
> 10 µM: all assays above
